Test results as given in patent US20090137613A1, “PHARMACEUTICALLY ACCEPTABLE SALTS AND POLYMORPHIC FORMS” (priority 2006, published 2009).
Structures can show the parent of a compound that is named as a salt. Where two headings read alike, the source gives them in different places. Blank lines part the entries; values can stand above or below the compound they belong to.

Legend:
[1] = Dynamic vapour sorption (DVS), moisture sorption / hygroscopicity; type: physicochemical
Description: DVS is a measure of the water vapour or moisture sorption of a material under varying conditions of humidity and it can be used as a measure of the hygroscopicity of a given material. The DVS data as described herein was obtained using the Dynamic Vapour Sorption (DVS) methodology developed by Surface Measurement Systems (SMS) Ltd. for the rapid quantitative analysis of the water sorption properties of solids including pharmaceutical materials. The Surface Measurement Systems DVS instrument rapidly measures uptake and loss of moisture by flowing a carrier gas at a specified relative humidity (RH) over a sample (1 mg-1.5 g) suspended from the weighing mechanism of a Cahn D-200 ultra sensitive recording microbalance. This particular microbalance is used because it is capable of measuring changes in sample mass lower than 1 part in 10 million and provides the long-term stability as required for the accurate measurement of vapour sorption phenomena, which may take from minutes to days to complete depending upon the sample size and material. Indeed, a major factor in determining the water sorption behaviour of materials is the need to establish rapid water sorption equilibrium, therefore the DVS instrument allows sorption behaviour to be accurately determined on very small sample sizes (typically 10 mg), thus minimising the equilibration time required. One of the most critical factors for any instrumentation used for investigating moisture sorption behaviour is the temperature stability of the measurement system. The main DVS instrument systems as used herein are, therefore, housed in a precisely controlled constant temperature incubator with a temperature stability of ±0.1° C. This ensures very good instrument baseline stability as well as accurate control of the relative humidity generation. The required relative humidities are generated by accurately mixing dry and saturated vapour gas flows in the correct proportions using mass flow controllers. Humidity and temperature probes are situated just below the sample and reference holders to give independent verification of system performance. The microbalance mechanism is very sensitive to sorption and desorption of moisture. A constant dry gas purge to the balance head is, therefore, provided to give the best performance in terms of baseline stability. The purge flow is manually controlled such that in the event of a power failure, condensation of moisture in the balance head cannot occur. The DVS instrument is fully automated.

[2] = Thermogravimetric analysis (TGA), thermally induced weight loss / thermal stability; type: physicochemical
Description: Polymorph I of valacyclovir mesylate according to the present invention is further characterised by a typical TGA thermograph, or substantially the same TGA thermograph, as shown in FIG. 3. As used herein, the term “TGA” refers to thermogravimetric analysis. […] TGA is restricted in transitions that involve either a gain or a loss of mass and it is most commonly used to study desolvation processes and compound decomposition.
FIG. 3: Typical TGA thermograph of polymorph I of valacyclovir mesylate obtained by using thermogravimetric analysis (TGA) using TGA 7 manufactured by Perkin-Elmer. The experiments were done under flow of nitrogen (35 ml/min) and heating rate was 10° C./min.

[3] = cited from earlier work
[4] = cited from earlier work; for bioavailability: oral, valacyclovir in comparison to acyclovir
[5] = at about 90% relative humidity (RH)
[6] = temperature range of about 30-175° C.

Compound: CC(C)[C@H](N)C(=O)OCCOCn1cnc2c(=O)[nH]c(N)nc21 [valacyclovir hydrochloride]
solubility in water [3]: moderately soluble

Compound: Nc1nc2c(ncn2COCCO)c(=O)[nH]1 [Acyclovir, 9-[(2-hydroxyethoxy)methyl]guanine]
bioavailability [4]: low bioavailability

Compound: CC(C)[C@H](N)C(=O)OCCOCn1cnc2c(=O)[nH]c(N)nc21 [Polymorph I of valacyclovir base, L-valine 2-[(2-amino-1,6-dihydro-6-oxo-9H-purin-9-yl)methoxy]ethyl ester]
dynamic vapour sorption (DVS) [1, 5]: about 0.4% | stable to a temperature of (thermal stability confirmed by TGA) ([2]; solid form as prepared): about 200 °C | TGA weight loss ([2]; temperature range of about 200° C.): no TGA weight loss

Compound: valacyclovir citrate [Polymorph I of valacyclovir citrate]
stable to a temperature of (thermal stability confirmed by TGA) ([2]; solid form as prepared): about 180 °C | TGA weight loss ([2]; temperature range of about 30-80° C.): about 2.6%

Compound: CC(C)[C@H](N)C(=O)OCCOCn1cnc2c(=O)[nH]c(N)nc21 [valacyclovir, L-valine 2-[(2-amino-1,6-dihydro-6-oxo-9H-purin-9-yl)methoxy]ethyl ester]
absorption from the gastrointestinal tract ([4]; after oral administration): rapidly absorbed | bioavailability [4]: improved bioavailability

Compound: valacyclovir fumarate [Polymorph I of valacyclovir fumarate]
stable to a temperature of (thermal stability confirmed by TGA) ([2]; solid form as prepared): about 200 °C | TGA weight loss ([2]; temperature range of about 30-100° C.): about 0.9%

Further lines, results first:

dynamic vapour sorption (DVS) ([1]; at about 80% RH): about 1.0% | dynamic vapour sorption (DVS) [1, 5]: about 5.1% | stable to a temperature of (thermal stability confirmed by TGA) ([2]; solid form as prepared): about 200 °C | TGA weight loss ([2]; temperature range of about 30-200° C.): no TGA weight loss
Compound: valacyclovir phosphate [Polymorph I of valacyclovir phosphate]

TGA weight loss [2, 6]: about 6.8%
Compound: valacyclovir phosphate [Polymorph II of valacyclovir phosphate]

dynamic vapour sorption (DVS) [1, 5]: about 3.6% | stable to a temperature of (thermal stability confirmed by TGA) ([2]; solid form as prepared): about 200 °C | TGA weight loss ([2]; temperature range of about 30-165° C.): about 2.5%
Compound: valacyclovir mesylate [Polymorph I of valacyclovir mesylate]

stable to a temperature of (thermal stability confirmed by TGA) [2]: about 150 °C | TGA weight loss ([2]; temperature range of about 30-140° C.): about 9.2%
Compound: valacyclovir fumarate [Polymorph II of valacyclovir fumarate]

stable to a temperature of (thermal stability confirmed by TGA) ([2]; solid form as prepared): about 160 °C | TGA weight loss ([2]; temperature range of about 30-150° C.): about 5.3%
Compound: valacyclovir maleate [Polymorph I of valacyclovir maleate]

dynamic vapour sorption (DVS) [1, 5]: about 5.2% | TGA weight loss [2, 6]: about 2.1%
Compound: valacyclovir phosphate [Polymorph III of valacyclovir phosphate]
